Experimental data published in US11873298B2, “Compounds and uses thereof” (JANSSEN PHARMACEUTICA NV, priority 2017, dated 2024).
Several values for one entry are separate records, joined by “and”; a condition that tells them apart may be missing. Identical values can stand only once.

Key:
[1] = test system: yeast strains expressing the human α-synuclein; experiment: Yeast α-synuclein toxicity rescue assay (OD600 growth); settings: 40 h; for EC50: read-out: α-Syn EC50; for Emax: read-out: α-Syn Emax
SCD1 = target: T1, SCD1 (Homo sapiens, UniProt O00767); experiment: Growth inhibition of humanized yeast strain expressing SCD1 as sole desaturase; format: cell-based; settings: humanized yeast strain expressing SCD1
T1 construct: host or cells: S. cerevisiae ole1Δ strain (W303 pdr1Δ pdr3Δ background), plasmid pRS316 with TDH3 promoter and CYC1 terminator
T1 sequence (O00767 1-359): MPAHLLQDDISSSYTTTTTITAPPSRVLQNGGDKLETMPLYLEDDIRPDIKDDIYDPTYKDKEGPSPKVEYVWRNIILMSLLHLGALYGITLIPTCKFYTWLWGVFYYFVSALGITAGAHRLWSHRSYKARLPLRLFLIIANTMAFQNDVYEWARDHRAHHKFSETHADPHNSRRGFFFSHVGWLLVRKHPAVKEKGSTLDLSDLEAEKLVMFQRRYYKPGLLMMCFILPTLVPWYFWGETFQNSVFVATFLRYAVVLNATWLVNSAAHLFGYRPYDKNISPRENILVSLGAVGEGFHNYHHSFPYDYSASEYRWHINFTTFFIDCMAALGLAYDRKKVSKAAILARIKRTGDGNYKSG
Method in brief: (§1)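 Yeast ole1Δ strain (W303 pdr1Δ pdr3Δ background) carrying plasmid-borne Ole1, SCD1 or SCD5 as sole desaturase was grown in uracil-lacking media, pre-cultured in raffinose for 6 h, then seeded in galactose medium with compound in DMSO. Growth was read as OD600 after 30° C. incubation: 24 h for Ole1, 40 h for SCD1/SCD5.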

SCD5 = target: T2, SCD5 (Homo sapiens, UniProt Q86SK9); experiment: Growth inhibition of humanized yeast strain expressing SCD5 as sole desaturase; format: cell-based; settings: humanized yeast strain expressing SCD5
T2 construct: host or cells: S. cerevisiae ole1Δ strain (W303 pdr1Δ pdr3Δ background), plasmid pRS316 with TDH3 promoter and CYC1 terminator
T2 sequence (Q86SK9 1-330): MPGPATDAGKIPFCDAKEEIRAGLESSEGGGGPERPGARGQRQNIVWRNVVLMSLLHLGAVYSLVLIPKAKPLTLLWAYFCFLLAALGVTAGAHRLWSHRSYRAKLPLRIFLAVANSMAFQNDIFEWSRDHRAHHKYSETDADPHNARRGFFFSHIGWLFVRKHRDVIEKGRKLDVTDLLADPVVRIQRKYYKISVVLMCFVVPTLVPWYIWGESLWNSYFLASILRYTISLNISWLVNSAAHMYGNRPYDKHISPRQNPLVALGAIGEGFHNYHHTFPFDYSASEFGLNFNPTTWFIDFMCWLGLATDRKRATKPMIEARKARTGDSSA
Method in brief: as §1

Ole1 = target: T3, Ole1 (Saccharomyces cerevisiae, UniProt P21147); experiment: Growth inhibition of yeast strain expressing Ole1 as sole desaturase; format: cell-based; settings: yeast strain expressing Ole1 as sole desaturase
T3 construct: expressed in transfected cells; host or cells: S. cerevisiae ole1Δ strain (W303 pdr1Δ pdr3Δ background), plasmid pRS316 with TDH3 promoter and CYC1 terminator
T3 sequence (P21147 1-510): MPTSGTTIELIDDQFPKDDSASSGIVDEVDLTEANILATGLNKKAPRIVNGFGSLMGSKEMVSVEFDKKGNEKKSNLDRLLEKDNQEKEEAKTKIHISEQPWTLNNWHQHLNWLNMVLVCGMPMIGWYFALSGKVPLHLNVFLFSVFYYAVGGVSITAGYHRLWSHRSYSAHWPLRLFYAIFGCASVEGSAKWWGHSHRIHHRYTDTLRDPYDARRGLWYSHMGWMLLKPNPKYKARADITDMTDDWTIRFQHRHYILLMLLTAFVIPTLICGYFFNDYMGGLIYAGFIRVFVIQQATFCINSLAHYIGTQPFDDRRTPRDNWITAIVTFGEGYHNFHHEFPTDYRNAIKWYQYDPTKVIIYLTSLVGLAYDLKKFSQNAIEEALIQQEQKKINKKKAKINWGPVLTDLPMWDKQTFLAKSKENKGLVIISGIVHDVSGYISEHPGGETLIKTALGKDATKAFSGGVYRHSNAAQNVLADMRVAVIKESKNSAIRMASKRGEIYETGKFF
Method in brief: as §1

Compound	EC50 [1] [µM]	Emax [1] [%]	IC50 (SCD1) [µM]	SCD1 % Max Inhibition (SCD1)	IC50 (SCD5) [µM]	SCD5 % Max Inhibition (SCD5) [%]	IC50 (Ole1) [µM]	OLE1 % Max Inhibition (Ole1)
COc1ccc(-c2noc(C3CCN(C(=O)C(C)(C)NC(=O)c4ccccc4)CC3)n2)cc1OC [Compound 29]	13.9	38	> 45	69.52%	> 45	74.10	> 45	91.00%
COc1ccc(-c2noc(C3CCN(CCNC(=O)c4ccccc4)CC3)n2)cc1OC [Compound 32]	9.88	41	> 45	84.16%	> 45	80.17	> 45	108.22%
COc1ccc(-c2nnc(C3CCN(C(=O)CNC(=O)c4ccccc4)CC3)o2)cc1OC [Compound 39]	18.1	216	> 45	77.01%	> 45	79.10	> 45	110.89%
Cc1nn(C)c2cc(-c3noc(C4CCN(C(=O)CNC(=O)c5ccccc5)CC4)n3)ccc12 [Compound 40]	0.086	443	> 45	41.70% and 47.19% and 57.7%	> 45	–	> 45	1.26% and 0.80% and 4.9%
COc1ccc(-c2noc(C3CCN(C(=O)CNC(C)=O)CC3)n2)cc1OC [Compound 46]	10.9	35	> 45	70.27%	> 45	72.35	> 45	87.95%
COc1ccc(-c2noc(C3CCN(C(=O)CNC(=O)C(C)C)CC3)n2)cc1OC [Compound 47]	16.5	88	> 45	73.30%	> 45	74.25	> 45	109.20%
COc1ccccc1-c1noc(C2CCN(C(=O)CNC(=O)c3ccc(C)c(C)c3)CC2)n1 [Compound 58]	7.94	23	> 45	101.47%	> 45	66.93	> 45	92.35%
Cc1nn(C)c2ccc(-c3noc(C4CCN(C(=O)CNC(=O)c5ccccc5)CC4)n3)cc12 [Compound 95]	0.091	827	39.2	–	> 45	–	> 45	–
Cc1nn(C)c2cc(-c3noc(N4CCN(C(=O)c5cc(-c6ccccc6)no5)CC4)n3)ccc12 [Compound 103]	2.02	75	> 45	93.33%	> 45	68.60	> 45	5.27%
O=C(NCC(=O)N1CCC(c2nc(-c3ccc4nsnc4c3)no2)CC1)c1ccccc1 [Compound 104]	1.87	253	> 45	76.89%	> 45	77.11	> 45	110.40%
CCn1nc2cc(-c3noc(C4CCN(C(=O)OC(C)(C)C)CC4)n3)ccc2c1C [Compound 342]	–	–	> 45	75.9%	> 45	43.5	> 45	80.9%
Cc1nn(C(C)C)c2cc(-c3noc(C4CCN(C(=O)OC(C)(C)C)CC4)n3)ccc12 [Compound 343]	–	–	–	59.1%	> 45	23.2	> 45	84.7%
COc1ccc(-c2noc(CCNC(=O)CNC(=O)c3ccccc3)n2)cc1OC [Compound 484]	–	–	–	75.84%	> 45	81.46	> 45	92.09%
